In ChEMBL document CHEMBL4049405, “Investigation on cellular uptake and pharmacodynamics of DOCK2-inhibitory peptides conjugated with cell-penetrating peptides” (Bioorg Med Chem, 2017):
Calls of active or inactive are those of the source. No cut-off for these calls is given here. Positions of bridges follow the written chain, without caps; N, C: chain ends. Non-standard residues stand in square brackets, D forms with d. Residues, ends and D or L forms follow the SMILES beside them. *: point of attachment. X1 = O=C(OCCCS*)Oc1ccc2nc(C3=N[C@@H](C(=O)O)CS3)sc2c1; X2 = CC(=O)[C@H]1CSC(c2nc3ccc(OC(=O)OCCCS*)cc3s2)=N1; Nle = CCCC[C@H](N)C(=O)O; Mpa = O=C(O)CCS

Legend:
[1] = target: T1, Dedicator of cytokinesis protein 2 (Homo sapiens, UniProt Q92608); test: Inhibition of GST-fused Rac1 (unknown origin) binding to recombinant N-terminal trigger factor/C-terminal SBP-tagged DOCK2 DHR-2 binding domain (unknown origin) expressed in mammalian cells assessed as reduction in Rac GEF activity pretreated for 1 hr followed by GST-fused Rac1 addition after 1 hr by ELISA; format: cell-based
[2] = Drug uptake in HEK293T cells expressing luciferase reporter gene at 50 uM measured every 3 mins for 60 mins by luminescence assay relative to 50 uM luciferin; format: ADME, cell-based; conditions: human, hek-293t, 1 h
[3] = in vitro; conditions: human, HEK293T cells
Description: Cytotoxicity against HEK293T cells assessed as cell viability at 12.5 uM by CellTiter-Glo assay relative to control

[4] = Cytotoxicity against HEK293T cells assessed as cell viability at 50 uM by CellTiter-Glo assay relative to control; conditions: human
[5] = in vitro; conditions: human, HEK293T cells; remark: listed apart in the source
Description: Cytotoxicity against HEK293T cells assessed as cell viability at 25 uM by CellTiter-Glo assay relative to control

[6] = in vitro; conditions: human, HEK293T cells; remark: listed apart in the source
Description: Cytotoxicity against HEK293T cells assessed as cell viability at 6.3 uM by CellTiter-Glo assay relative to control

[7] = tested on: Mino; test: Antimigratory activity against human Mino cells assessed as inhibition of S1P stimulated cell migration at 1.1 uM measured after 30 mins by Cell-titer Glo assay; format: functional, cell-based
[8] = tested on: Mino; test: (§1) Antimigratory activity against human Mino cells assessed as inhibition of S1P stimulated cell migration at 10 uM measured after 30 mins by Cell-titer Glo assay relative to control; format: functional
[9] = target: T1, Dedicator of cytokinesis protein 2; test: Inhibition of Rac1 binding to biotinylated DOCK2 (unknown origin) by ELISA
[10] = tested on: Mino; test: (§2) Antimigratory activity against human Mino cells assessed as inhibition of S1P stimulated cell migration at 3.3 uM measured after 30 mins by Cell-titer Glo assay relative to control; format: functional
[11] = as §2; format: functional; conditions: 0.5 h
[12] = as §1; format: functional; conditions: 0.5 h
[13] = in vitro; conditions: human, HEK293T cells; remark: listed apart in the source
Description: Cytotoxicity against HEK293T cells assessed as cell viability at 1.9 uM by CellTiter-Glo assay relative to control

[14] = in vitro; conditions: human, HEK293T cells; remark: listed apart in the source
Description: Cytotoxicity against HEK293T cells assessed as cell viability at 5.6 uM by CellTiter-Glo assay relative to control

[15] = in vitro; conditions: human, HEK293T cells; remark: listed apart in the source
Description: Cytotoxicity against HEK293T cells assessed as cell viability at 16.7 uM by CellTiter-Glo assay relative to control

T1 sequence (Q92608 whole entry, the tested form may be a part): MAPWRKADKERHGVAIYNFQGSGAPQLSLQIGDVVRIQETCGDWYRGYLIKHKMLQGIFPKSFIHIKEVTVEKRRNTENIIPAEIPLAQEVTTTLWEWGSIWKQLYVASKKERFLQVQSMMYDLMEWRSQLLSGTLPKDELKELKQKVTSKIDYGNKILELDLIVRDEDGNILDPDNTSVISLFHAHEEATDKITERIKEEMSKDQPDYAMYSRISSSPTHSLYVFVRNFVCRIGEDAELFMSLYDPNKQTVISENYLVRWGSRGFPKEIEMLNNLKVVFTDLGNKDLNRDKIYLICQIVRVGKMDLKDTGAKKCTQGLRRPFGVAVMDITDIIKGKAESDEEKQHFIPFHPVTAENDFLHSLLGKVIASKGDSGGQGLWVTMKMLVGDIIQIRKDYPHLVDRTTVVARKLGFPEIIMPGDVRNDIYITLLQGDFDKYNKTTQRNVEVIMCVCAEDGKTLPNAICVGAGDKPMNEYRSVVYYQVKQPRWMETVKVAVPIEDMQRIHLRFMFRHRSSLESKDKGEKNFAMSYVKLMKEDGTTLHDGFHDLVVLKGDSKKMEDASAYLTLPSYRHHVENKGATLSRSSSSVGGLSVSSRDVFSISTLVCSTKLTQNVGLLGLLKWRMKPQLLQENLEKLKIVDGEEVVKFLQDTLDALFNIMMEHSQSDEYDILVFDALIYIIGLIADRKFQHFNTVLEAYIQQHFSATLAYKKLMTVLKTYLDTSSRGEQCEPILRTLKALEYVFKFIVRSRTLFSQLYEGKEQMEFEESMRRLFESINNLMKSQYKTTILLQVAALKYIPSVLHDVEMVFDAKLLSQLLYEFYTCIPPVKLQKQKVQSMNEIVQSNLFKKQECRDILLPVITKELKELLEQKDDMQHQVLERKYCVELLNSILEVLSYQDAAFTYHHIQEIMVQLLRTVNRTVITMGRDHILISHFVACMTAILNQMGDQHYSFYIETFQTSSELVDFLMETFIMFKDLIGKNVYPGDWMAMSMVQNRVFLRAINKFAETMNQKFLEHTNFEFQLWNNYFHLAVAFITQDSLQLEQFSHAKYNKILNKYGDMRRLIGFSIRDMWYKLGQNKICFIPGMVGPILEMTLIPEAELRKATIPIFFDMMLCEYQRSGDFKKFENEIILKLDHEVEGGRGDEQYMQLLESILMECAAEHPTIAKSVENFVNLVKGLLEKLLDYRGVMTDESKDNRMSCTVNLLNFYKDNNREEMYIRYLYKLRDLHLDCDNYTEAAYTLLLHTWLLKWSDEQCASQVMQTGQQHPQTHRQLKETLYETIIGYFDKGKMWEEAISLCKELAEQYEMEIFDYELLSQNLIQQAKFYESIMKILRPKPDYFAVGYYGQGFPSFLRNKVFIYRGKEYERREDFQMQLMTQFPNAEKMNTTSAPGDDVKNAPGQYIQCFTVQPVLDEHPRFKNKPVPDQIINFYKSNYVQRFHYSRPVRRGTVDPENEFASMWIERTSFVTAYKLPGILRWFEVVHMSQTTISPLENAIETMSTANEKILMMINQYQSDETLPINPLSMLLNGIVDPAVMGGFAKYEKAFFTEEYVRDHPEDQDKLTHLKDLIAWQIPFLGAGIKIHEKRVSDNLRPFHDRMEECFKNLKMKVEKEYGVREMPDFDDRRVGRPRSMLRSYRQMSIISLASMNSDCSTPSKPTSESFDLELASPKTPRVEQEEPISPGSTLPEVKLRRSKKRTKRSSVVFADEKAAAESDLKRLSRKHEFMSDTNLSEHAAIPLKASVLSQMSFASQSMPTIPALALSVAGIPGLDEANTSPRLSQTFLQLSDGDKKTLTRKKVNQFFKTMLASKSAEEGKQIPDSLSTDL

| SMILES | fold change (FC) [2] | viability at 12.5 µM [3] | viability at 50 µM [4] | viability at 25 µM [5] | viability at 6.3 µM [6] | inhibition [7] | IC50 [9] | further results |
| --- | --- | --- | --- | --- | --- | --- | --- | --- |
| O=C1NN(c2ccccc2)C(=O)/C1=C/C=C/c1ccccc1Cl | – | – | – | – | – | – | – | IC50 [1]: 22800 nM |
| CC(=O)N[C@@H](CSSCCCOC(=O)Oc1ccc2nc(C3=N[C@@H](C(=O)O)CS3)sc2c1)C(=O)N[C@H]1CSSC[C@@H](C(=O)N[C@@H](CCCNC(=N)N)C(=O)N[C@@H](CCCNC(=N)N)C(=O)N[C@@H](CCCNC(=N)N)C(=O)N[C@@H](CCCNC(=N)N)C(=O)N[C@@H](CCCNC(=N)N)C(=O)N[C@@H](CCCNC(=N)N)C(=O)N[C@@H](CCCNC(=N)N)C(=O)N[C@@H](CCCNC(=N)N)C(N)=O)NC(=O)[C@H](Cc2c[nH]c3ccccc23)NC(=O)[C@@H]2CCCN2C(=O)[C@H](Cc2ccc(O)cc2)NC(=O)CNC(=O)[C@H](Cc2cnc[nH]2)NC(=O)[C@H](Cc2ccc(O)cc2)NC(=O)[C@H](CCCCN)NC(=O)[C@H](C)NC(=O)[C@H](C(C)C)NC1=O (Ac-C(X1)CVAKYHGYPWCRRRRRRRR-NH2; disulfide 2-12) | 61 | 104% | 71.7% | 99.7% | 108% | – | – | – |
| CC(=O)N[C@@H](CSSCCCOC(=O)Oc1ccc2nc(C3=N[C@@H](C(C)=O)CS3)sc2c1)C(=O)N[C@H]1CSSC[C@@H](C(=O)N[C@@H](CCCNC(=N)N)C(=O)N[C@@H](CCCNC(=N)N)C(=O)N[C@@H](CCCNC(=N)N)C(N)=O)NC(=O)[C@H](Cc2c[nH]c3ccccc23)NC(=O)[C@@H]2CCCN2C(=O)[C@H](Cc2ccc(O)cc2)NC(=O)CNC(=O)[C@H](Cc2cnc[nH]2)NC(=O)[C@H](Cc2ccc(O)cc2)NC(=O)[C@H](CCCCN)NC(=O)[C@H](C)NC(=O)[C@H](C(C)C)NC1=O (Ac-C(X2)CVAKYHGYPWCRRR-NH2; disulfide 2-12) | 22.8 | 112% | 126% | 115% | 105% | – | – | – |
| CC(=O)N[C@@H](CSSCCCOC(=O)Oc1ccc2nc(C3=N[C@@H](C(C)=O)CS3)sc2c1)C(=O)N[C@H]1CSSC[C@@H](C(=O)N[C@@H](CCCNC(=N)N)C(=O)N[C@@H](CCCNC(=N)N)C(=O)N[C@@H](CCCNC(=N)N)C(=O)N[C@H](C(=O)N[C@@H](CCCNC(=N)N)C(=O)N[C@H](C(=O)N[C@@H](CC(C)C)C(=O)N[C@@H](CCCCN)C(=O)N[C@@H](CCCNC(=N)N)C(=O)N[C@@H](Cc2c[nH]c3ccccc23)C(=O)N[C@@H](CCCCN)C(=O)N[C@@H](CC(C)C)C(=O)N[C@@H](Cc2ccccc2)C(N)=O)C(C)C)[C@@H](C)O)NC(=O)[C@H](Cc2c[nH]c3ccccc23)NC(=O)[C@@H]2CCCN2C(=O)[C@H](Cc2ccc(O)cc2)NC(=O)CNC(=O)[C@H](Cc2cnc[nH]2)NC(=O)[C@H](Cc2ccc(O)cc2)NC(=O)[C@H](CCCCN)NC(=O)[C@H](C)NC(=O)[C@H](C(C)C)NC1=O (Ac-C(X2)CVAKYHGYPWCRRRTRVLKRWKLF-NH2; disulfide 2-12) | 66.8 | 108% | 85.9% | 97.1% | 99.1% | – | – | – |
| CC(=O)N[C@H]1CSSC[C@@H](C(=O)N[C@@H](CCCNC(=N)N)C(=O)N[C@@H](CCCNC(=N)N)C(=O)N[C@@H](CCCNC(=N)N)C(N)=O)NC(=O)[C@H](Cc2c[nH]c3ccccc23)NC(=O)[C@@H]2CCCN2C(=O)[C@H](Cc2ccc(O)cc2)NC(=O)CNC(=O)[C@H](Cc2cnc[nH]2)NC(=O)[C@H](Cc2ccc(O)cc2)NC(=O)[C@H](CCCCN)NC(=O)[C@H](C)NC(=O)[C@H](C(C)C)NC1=O (Ac-CVAKYHGYPWCRRR-NH2; disulfide 1-11) | – | – | – | – | – | Active | 11 nM | inhibition [8]: Active |
| CC(=O)N[C@H]1CSSC[C@@H](C(=O)N[C@@H](CCCNC(=N)N)C(=O)N[C@@H](CCCNC(=N)N)C(=O)N[C@@H](CCCNC(=N)N)C(=O)N[C@@H](C)C(=O)N[C@@H](CC(C)C)C(=O)N[C@@H](Cc2c[nH]c3ccccc23)C(=O)N[C@@H](CCCCN)C(=O)N[C@H](C(=O)N[C@@H](CC(C)C)C(=O)N[C@@H](CC(C)C)C(=O)N[C@@H](CCCCN)C(=O)N[C@@H](CCCCN)C(=O)N[C@H](C(=O)N[C@@H](CC(C)C)C(=O)N[C@@H](CCCCN)C(=O)N[C@@H](C)C(=O)N2CCC[C@H]2C(=O)N[C@@H](CCCCN)C(=O)N[C@@H](CCCCN)C(=O)N[C@@H](CCCCN)C(=O)N[C@@H](CCCNC(=N)N)C(=O)N[C@@H](CCCCN)C(=O)N[C@H](C(N)=O)C(C)C)C(C)C)[C@@H](C)O)NC(=O)[C@H](Cc2c[nH]c3ccccc23)NC(=O)[C@@H]2CCCN2C(=O)[C@H](Cc2ccc(O)cc2)NC(=O)CNC(=O)[C@H](Cc2cnc[nH]2)NC(=O)[C@H](Cc2ccc(O)cc2)NC(=O)[C@H](CCCCN)NC(=O)[C@H](C)NC(=O)[C@H](C(C)C)NC1=O (Ac-CVAKYHGYPWCRRRALWKTLLKKVLKAPKKKRKV-NH2; disulfide 1-11) | – | – | – | – | – | Active | 71 nM | inhibition [10]: Active |
| CCCC[C@H](NC(=O)[C@H](CCCNC(=N)N)NC(=O)[C@H](CCCNC(=N)N)NC(=O)[C@H](CC(N)=O)NC(=O)[C@H](CCC(N)=O)NC(=O)[C@H](Cc1ccccc1)NC(=O)[C@H](Cc1c[nH]c2ccccc12)NC(=O)[C@@H](NC(=O)[C@H](CCCCN)NC(=O)[C@@H](NC(=O)[C@H](CCC(N)=O)NC(=O)[C@H](CCCNC(=N)N)NC(=O)[C@H](CCCNC(=N)N)NC(=O)[C@H](CCCNC(=N)N)NC(=O)[C@H](CCCNC(=N)N)NC(=O)[C@@H]1CSSC[C@H](NC(C)=O)C(=O)N[C@@H](C(C)C)C(=O)N[C@@H](C)C(=O)N[C@@H](CCCCN)C(=O)N[C@@H](Cc2ccc(O)cc2)C(=O)N[C@@H](Cc2cnc[nH]2)C(=O)NCC(=O)N[C@@H](Cc2ccc(O)cc2)C(=O)N2CCC[C@H]2C(=O)N[C@@H](Cc2c[nH]c3ccccc23)C(=O)N1)[C@@H](C)CC)[C@@H](C)CC)C(=O)N[C@@H](CCCCN)C(=O)N[C@@H](Cc1c[nH]c2ccccc12)C(=O)N[C@@H](CCCCN)C(=O)N[C@@H](CCCCN)C(N)=O (Ac-CVAKYHGYPWCRRRRQIKIWFQNRR[Nle]KWKK-NH2; disulfide 1-11) | – | – | – | – | – | Active | 95 nM | inhibition [10]: Active |
| CC(=O)N[C@H]1CSSC[C@@H](C(=O)N[C@@H](CCCNC(=N)N)C(=O)N[C@@H](CCCNC(=N)N)C(=O)N[C@@H](CCCNC(=N)N)C(=O)N[C@@H](CCCNC(=N)N)C(=O)N[C@@H](CCCNC(=N)N)C(=O)N[C@@H](CCCNC(=N)N)C(=O)N[C@@H](CCCNC(=N)N)C(=O)N[C@@H](CCCNC(=N)N)C(N)=O)NC(=O)[C@H](Cc2c[nH]c3ccccc23)NC(=O)[C@@H]2CCCN2C(=O)[C@H](Cc2ccc(O)cc2)NC(=O)CNC(=O)[C@H](Cc2cnc[nH]2)NC(=O)[C@H](Cc2ccc(O)cc2)NC(=O)[C@H](CCCCN)NC(=O)[C@H](C)NC(=O)[C@H](C(C)C)NC1=O (Ac-CVAKYHGYPWCRRRRRRRR-NH2; disulfide 1-11) | – | – | – | – | – | Active | 8 nM | inhibition at 3.3 µM [11]: > 89%; inhibition at 10 µM [12]: > 89% |
| CC(=O)N[C@H]1CSSC[C@@H](C(=O)N[C@@H](CCCNC(=N)N)C(=O)N[C@@H](CCCNC(=N)N)C(=O)N[C@@H](CCCNC(=N)N)C(=O)N[C@H](C(=O)N[C@@H](CCCNC(=N)N)C(=O)N[C@H](C(=O)N[C@@H](CC(C)C)C(=O)N[C@@H](CCCCN)C(=O)N[C@@H](CCCNC(=N)N)C(=O)N[C@@H](Cc2c[nH]c3ccccc23)C(=O)N[C@@H](CCCCN)C(=O)N[C@@H](CC(C)C)C(=O)N[C@@H](Cc2ccccc2)C(N)=O)C(C)C)[C@@H](C)O)NC(=O)[C@H](Cc2c[nH]c3ccccc23)NC(=O)[C@@H]2CCCN2C(=O)[C@H](Cc2ccc(O)cc2)NC(=O)CNC(=O)[C@H](Cc2cnc[nH]2)NC(=O)[C@H](Cc2ccc(O)cc2)NC(=O)[C@H](CCCCN)NC(=O)[C@H](C)NC(=O)[C@H](C(C)C)NC1=O (Ac-CVAKYHGYPWCRRRTRVLKRWKLF-NH2; disulfide 1-11) | – | – | – | – | – | Active | 31 nM | inhibition at 3.3 µM [11]: > 89%; inhibition at 10 µM [12]: > 89% |
| CC(C)C[C@H](NC(=O)[C@H](CCCCN)NC(=O)[C@H](Cc1c[nH]c2ccccc12)NC(=O)CCSSCCCOC(=O)Oc1ccc2nc(C3=N[C@@H](C(=O)O)CS3)sc2c1)C(=O)N[C@@H](Cc1ccccc1)C(=O)N[C@@H](CC(N)=O)C(=O)N[C@@H](CCCCN)C(=O)N[C@@H](CCC(N)=O)C(=O)N[C@@H](CCC(=O)O)C(=O)N[C@@H](Cc1c[nH]c2ccccc12)C(=O)N[C@H](C(N)=O)[C@@H](C)O ([Mpa](X1)WKLFNKQEWT-NH2) | 14.7 | – | 102% | – | – | – | – | viability at 1.9 µM [13]: 100%; viability at 5.6 µM [14]: 99.6%; viability at 16.7 µM [15]: 104% |
